According to patent EP0847397B1, “WATER-SOLUBLE C-RING ANALOGUES OF 20 (S)-CAMPTOTHECIN” (DR. REDDY'S RESEARCH FOUNDATION, priority 1996, dated 1997):
Values after ≈ are worked out from the molar mass of the structure shown.

Experiments:
[1] = result in words, compared with 20(S)-camptothecin; cited from earlier work
Pharmacokinetics at MTD = format: in vivo, Swiss albino mice; conditions: mouse, ip, intraperitoneal, plasma
Description: 3. Pharmacokinetics at MTD:
All studies were carried out in Swiss albino mice in the weight range 35-40 g. The animals were fasted overnight prior to dosage of the drug and were fed 3 hours after dosing. The animals were dosed intraperitonially as a solution in DMSO:water (50:50; v/v). Blood samples were drawn from orbital sinus at 1, 2, 4, 6 and 8 hours after administration of the dose into heparinized tubes, centrifuged at 13000 RPM for 10 min. Plasma samples were separated and analyzed by HPLC. To 50 µl of the sample, 100 µl of chilled acidified methanol was added and mixed to precipitate proteins. The sample was centrifuged at 13,000 RPM for 10 min. 100 µl of supernatant was made up to 200 µl with methanol:water (50:50; v/v) and 100 µl was injected on HPLC. Peak area of the drug was used for quantification. Calibration, control and recovery samples were prepared by spiking 50 µl of blank plasma with known amounts of the drug and processed in the same manner as the samples. (J. Natl. Cancer Inst., 1996; 88:817-824).

[2] = MTD in Swiss albino mice (single dose); conditions: mouse, in vivo, 14 days observation
Description: 1. MTD in Swiss albino mice:
Each Swiss Albino mouse is injected with a single does of the test compound on a day designated as Day 1: Doses that were tested are 400, 200, 100, 50, 25, 12.5, 8.3, 6.25 and 3.13 mg/kg body weight. […] (As per the protocol followed by the U.S. National Cancer Institute)

[3] = system: NCI's 60 human tumor cell line assay; experiment: cells; format: cell-based; conditions: 60 cell, 48 h, read-out: IC50 (mean GI50 against NCI's 60 human tumor cell line assay)
Description: (§3) Each test compound was screened against a battery of 60 human cell lines obtained from eight organs. In a typical procedure, the cell suspensions that were diluted according to the particular cell type and the expected target cell density (5000-40,000 cells per well based on cell growth characteristics) were added into 96-well microtiter plates. Inoculates were allowed a preincubation period of 24h at 37°C. for stabilization. Dilutions at twice the intended test concentrations were added at time zero in 100-µl aliquots to microtiter plate wells. Usually test compounds were evaluated at five 10-fold dilutions. The highest well concentration used in the test is 10^-4M. The cells are then incubated in the presence of drug (the test compound) for further 48h in 5% CO2 atmosphere and 100% humidity. At the end of this time, the adherent cells are fixed to the plate by means of trichloroacetic acid, and after a number of washes, the cell layer is treated with the protein stain Sulforhodamine B. The optical density which is proportional to protein mass, is then read by automated spectrophotometric plate readers at a wavelength of 515 nm. Readings are transferred to a microcomputer and final reports are generated using especially developed software.

[4] = Solubility by HPLC method; format: physicochemical; conditions: aqueous buffer, 0.1M sodium acetate buffer pH 5.0, 24 hours, room temperature
Description: 4. Solubility by HPLC method:
Excess of compound was soaked in 0.5 ml of 0.1M sodium acetate buffer at pH 5.0 for 24 hours at room temperature. The solution was filtered through 0.45 micron PVDF syringe filter (Gelman Sciences). The filtrate was injected into HPLC at different volumes (10 & 20 µl). Chromatograms were recorded. Responses recorded were extrapolated from the calibration curve and the solubility of the compound was calculated. (J. Med. Chem., 1995; 38: 400)

[5] = Solubility by routine method; format: physicochemical; conditions: deionized water, 37°C
Description: 5. Solubility by routine method:
Compound was suspended in 5 ml of deionized water and heated to 37°C. for 10 min. Then, the solution was filtered and the filtrate was evaporated to drying using methanol and the solid residue was weighed.

DU-145 = experiment: In vitro activity after 1 hour exposure (Sulforhodamine B); format: cell-based; conditions: Homo sapiens; DU-145, 1 hour exposure then 48 hours drug-free
Description: (§1) 6. In vitro activity after 1 hour exposure:
(§2) Grow the cells in 15 ml of Complete Medium (RPM1-1640 with 10% Fetal bovine serum and 0.2% NaHCO3) for 3-5 days to obtain a cell number of 10^6 cells/flask. The medium is removed and the attached cells are washed with Phosphate Buffered Saline (PBS). 1 ml of 0.1% Trypsin-EDTA is added and incubated for 5 min at 37°C. Tap the flasks gently and add 5 ml of complete medium. Remove cell suspension and centrifuge at 2000 rpm for 5 min. Discard the supernatant and suspend the pellet in 5 ml of complete medium. Count the cell number in a haemocytometer. Dilute the cell suspension to 10,000 cells/100 µl in complete medium. Plate out 100 µl of cell suspension in each of 96 well microtitre plate and incubate for 24 hrs at 37°C. and 5% CO2. Terminate the reference blank (plated out separately) with 25 µl of 50% cold Trichloroacetic acid (TCA). Incubate for 1 hour at 4°C. Wash the plate (five times) with deionized water. Air dry and preserve the plate at 4°C. for determination of T0 value. Prepare suitable dilution of the test compound in complete medium and add 100 µl to each well to maintain the final concentration ranging between 10^-4M and 10^-8M. Incubate for 1 hr at 37°C. and 5% CO2. Centrifuge the microtitre plate at 1000 rpm for 5 min. Remove the supernatant. Wash the cells twice with 100 µl of PBS to remove the traces of test compound. Add 200 µl of complete medium to each well and incubate for 48 hours at 37°C. and 5% CO2. Terminate the cell growth with the addition of 50 µl of 50% cold TCA. Incubate the plate for 1 hr at 4°C. Wash the plates with deionized water (five times) and air dry. Add 100 µl of Sulforhodamine B solution (0.4% in 1% acetic acid) to each well. Keep at room temperature for 15 minutes. Wash (five times) with 1% acetic acid and air dry. Add 100 µl of 10mM Trizma base (Sigma), shake gently on plate shaker for 15 minutes and read the optical density at 490 nm in Spectrophotometric plate reader. (as per the protocol followed by the U.S. National Cancer Institute.

OVCAR-8 = experiment: as above; format: cell-based; conditions: Homo sapiens; OVCAR-8, 1 hour exposure then 48 hours drug-free
Description: as §1, §2

HOP-62 = experiment: as above; format: cell-based; conditions: Homo sapiens; HOP-62, 1 hour exposure then 48 hours drug-free
Description: as §1, §2

MCF-7/ADR = experiment: as above; format: cell-based; conditions: Homo sapiens, NCI/ADR-RES, 1 hour exposure then 48 hours drug-free
Description: as §1, §2

UACC-62 = experiment: as above; format: cell-based; conditions: Homo sapiens; UACC-62, 1 hour exposure then 48 hours drug-free
Description: as §1, §2

ACHN [6] = experiment: as above; format: cell-based; conditions: Homo sapiens, 1 hour exposure then 48 hours drug-free
Description: as §1, §2

SF-268 = experiment: as above; format: cell-based; conditions: Homo sapiens
Description: as §1, §2

HT 29 = experiment: NCI in vitro 60 human tumor cell line assay; format: cell-based; conditions: Homo sapiens, HT-29, 48 h, read-out: Total Growth Inhibition (TGI)
Description: as §3

SF 295 = experiment: NCI in vitro 60 human tumor cell line assay; format: cell-based; conditions: SF-295, 48 h, read-out: Total Growth Inhibition (TGI)
Description: as §3

MOLT 4 = experiment: NCI in vitro 60 human tumor cell line assay; format: cell-based; conditions: MOLT-4, 48 h, read-out: Total Growth Inhibition (TGI)
Description: as §3

U 251 = experiment: NCI in vitro 60 human tumor cell line assay; format: cell-based; conditions: U-251, 48 h, read-out: Total Growth Inhibition (TGI)
Description: as §3

MCF 7 = experiment: NCI in vitro 60 human tumor cell line assay; format: cell-based; conditions: MCF7, 48 h, read-out: Total Growth Inhibition (TGI)
Description: as §3

HOP 92 = experiment: NCI in vitro 60 human tumor cell line assay; format: cell-based; conditions: HOP-92, 48 h, read-out: Total Growth Inhibition (TGI)
A 498 = experiment: NCI in vitro 60 human tumor cell line assay; format: cell-based; conditions: A498, 48 h, read-out: Total Growth Inhibition (TGI)
Description: as §3

HCC 2998 = experiment: NCI in vitro 60 human tumor cell line assay; format: cell-based; conditions: Homo sapiens, HCC 2998, 48 h, read-out: Total Growth Inhibition (TGI)
Description: as §3

786-O = experiment: NCI in vitro 60 human tumor cell line assay; format: cell-based; conditions: 786-0, 48 h, read-out: Total Growth Inhibition (TGI)
Description: (§4) Each test compound was screened against a battery of 60 human cell lines obtained from eight organs. In a typical procedure, the cell suspensions that were diluted according to the particular cell type and the expected target cell density (5000-40,000 cells per well based on cell growth characteristics) were added into 96-well microtiter plates. Inoculates were allowed a preincubation period of 24h at 37°C. for stabilization. Dilutions at twice the intended test concentrations were added at time zero in 100-µl aliquots to microtiter plate wells. Usually test compounds were evaluated at five 10-fold dilutions. The highest well concentration used in the test is 10^-4M. The cells are then incubated in the presence of drug (the test compound) for further 48h in 5% CO2 atmosphere and 100% humidity. At the end of this time, the adherent cells are fixed to the plate by means of trichloroacetic acid, and after a number of washes, the cell layer is treated with the protein stain Sulforhodamine B. The optical density which is proportional to protein mass, is then read by automated spectrophotometric plate readers at a wavelength of 515 nm.

KM 12 = experiment: NCI in vitro 60 human tumor cell line assay; format: cell-based; conditions: KM12, 48 h, read-out: Total Growth Inhibition (TGI)
Description: as §3

SN12C = experiment: NCI in vitro 60 human tumor cell line assay; format: cell-based; conditions: 48 h, read-out: Total Growth Inhibition (TGI)
Description: as §3

HCT 116 = experiment: NCI in vitro 60 human tumor cell line assay; format: cell-based; conditions: HCT-116, 48 h, read-out: Total Growth Inhibition (TGI)
HCT 15 = experiment: NCI in vitro 60 human tumor cell line assay; format: cell-based; conditions: HCT-15, 48 h, read-out: Total Growth Inhibition (TGI)
Description: as §3

H 322M = experiment: NCI in vitro 60 human tumor cell line assay; format: cell-based; conditions: NCI-H322M, 48 h, read-out: Total Growth Inhibition (TGI)
Description: as §3

RXF 393 = experiment: NCI in vitro 60 human tumor cell line assay; format: cell-based; conditions: RXF 393, 48 h, read-out: Total Growth Inhibition (TGI)
Description: as §3

ACHN [7] = experiment: NCI in vitro 60 human tumor cell line assay; format: cell-based; conditions: 48 h, read-out: Total Growth Inhibition (TGI)
Description: as §3

T 47D = experiment: NCI in vitro 60 human tumor cell line assay; format: cell-based; conditions: T47D, 48 h, read-out: Total Growth Inhibition (TGI)
Description: as §3

MDA-N = experiment: NCI in vitro 60 human tumor cell line assay; format: cell-based; conditions: BREAST, 48h, read-out: Total Growth Inhibition (TGI)
Description: as §4

BT 549 = experiment: NCI in vitro 60 human tumor cell line assay; format: cell-based; conditions: BT-549, 48 h, read-out: Total Growth Inhibition (TGI)
Description: as §3

H 23 = experiment: NCI in vitro 60 human tumor cell line assay; format: cell-based; conditions: NCI-H23, 48 h, read-out: Total Growth Inhibition (TGI)
Description: as §3

UO 31 = experiment: NCI in vitro 60 human tumor cell line assay; format: cell-based; conditions: UO-31, 48 h, read-out: Total Growth Inhibition (TGI)
Description: as §3

MCF 7/ ADR = experiment: NCI in vitro 60 human tumor cell line assay; format: cell-based; conditions: Homo sapiens, NCI/ADR-RES, 48 h, read-out: Total Growth Inhibition (TGI)
Description: as §3

H 460 = experiment: NCI in vitro 60 human tumor cell line assay; format: cell-based; conditions: Homo sapiens, NCI-H460, 48 h, read-out: Total Growth Inhibition (TGI)
Description: as §3

MDA-MB-435 = experiment: NCI in vitro 60 human tumor cell line assay; format: cell-based; conditions: MDA-MB-435, 48 h, read-out: Total Growth Inhibition (TGI)
CAKI = experiment: NCI in vitro 60 human tumor cell line assay; format: cell-based; conditions: 48 h, read-out: Total Growth Inhibition (TGI)
Description: as §3

COLO 205 = experiment: NCI in vitro 60 human tumor cell line assay; format: cell-based; conditions: COLO 205, 48 h, read-out: Total Growth Inhibition (TGI)
H 522 = experiment: NCI in vitro 60 human tumor cell line assay; format: cell-based; conditions: NCI-H522, 48 h, read-out: Total Growth Inhibition (TGI)
Description: as §3

H 226 = experiment: NCI in vitro 60 human tumor cell line assay; format: cell-based; conditions: NCI-H226, 48 h, read-out: Total Growth Inhibition (TGI)
Description: as §3

KD 488 = experiment: In vitro activity against AIDS related Lymphoma (ARL) cell lines (NCI protocol); format: cell-based; conditions: Homo sapiens, KD 488, ARL cell line

5-hydroxymethyl camptothecin
anti-tumor activity [1]: reduced anti-tumor activity

CCOC1c2cc3c(O)cccc3nc2-c2cc3c(c(=O)n21)COC(=O)[C@]3(O)CC (stereo partly shown) [Example 11, 5-Ethoxy-9-hydroxycamptothecin]
AUC(0-t) (Pharmacokinetics at MTD; DMSO:water (50:50), read-out: AUC0-1): 18.5 ± 2.1 µM·h | Cmax (Pharmacokinetics at MTD): 6.95 ± 1.2 µM | Tmax (Pharmacokinetics at MTD): 1 h | half-life (Pharmacokinetics at MTD): 1.92 ± 0.4 h | k el (Pharmacokinetics at MTD): 0.000103 s⁻¹ | MTD at 336 h ([2]; intravenous): 100 mg/kg | MTD at 336 h ([2]; ip, intraperitoneal): 400 mg/kg | mean GI50 [3]: 6.68 µM | solubility at 24 h [4]: 170 µg/mL (≈ 416 µM) | solubility at 10 min [5]: < 1000 µg/mL | GI50 (DU-145): 0.35 µM | GI50 (OVCAR-8): 4.5 µM | GI50 (HOP-62): 6 µM | GI50 (MCF-7/ADR): 1.5 µM | GI50 (UACC-62): 40 µM | GI50 (ACHN [6]): 0.55 µM | GI50 (SF-268): 6 µM

CC[C@@]1(O)C(=O)OCc2c1cc1n(c2=O)C(OCC(F)(F)F)c2cc3ccccc3nc2-1 (stereo partly shown) [Example 25, 5-trifluoroethoxycamptothecin]
IC (TGI) (HT 29): 7.9 µM | IC (TGI) (SF 295): 2.15 µM | IC (TGI) (MOLT 4): 3 µM | mean GI50 [3]: 1.82 µM | IC (TGI) (U 251): 3.57 µM | IC (TGI) (MCF 7): 9.2 µM

CC[C@@]1(O)C(=O)OCc2c1cc1n(c2=O)C(OCC(F)(F)F)c2cc3c([N+](=O)[O-])cccc3nc2-1 (stereo partly shown) [Example 28, 9-Nitro-5-trifluoroethoxycamptothecin]
IC (TGI) (HOP 92): 8.44 µM | IC (TGI) (A 498): 1.76 µM | IC (TGI) (HT 29): 7.94 µM | IC (TGI) (HCC 2998): 7.65 µM | IC (TGI) (786-O): 0.85 µM | IC (TGI) (KM 12): 27.4 µM | IC (TGI) (SN12C): 2.31 µM | IC (TGI) (HCT 116): 8.01 µM | mean GI50 [3]: 0.46 µM | IC (TGI) (HCT 15): > 30 µM | IC (TGI) (H 322M): 30.2 µM | IC (TGI) (RXF 393): 15.9 µM | IC (TGI) (ACHN [7]): 0.37 µM | IC (TGI) (T 47D): 1.09 µM | IC (TGI) (MDA-N): 13.4 µM | IC (TGI) (BT 549): 32 µM | IC (TGI) (H 23): 0.76 µM | IC (TGI) (UO 31): 1.23 µM | IC (TGI) (MCF 7/ ADR): 1.21 µM | IC (TGI) (H 460): 1.22 µM | IC (TGI) (MDA-MB-435): 11.4 µM | IC (TGI) (CAKI): 0.75 µM | IC (TGI) (COLO 205): 9.48 µM | IC (TGI) (H 522): 13 µM | IC (TGI) (H 226): 4.3 µM

CCc1c2c(nc3ccccc13)-c1cc3c(c(=O)n1C2OCCO)COC(=O)[C@]3(O)CC (stereo partly shown) [Example 32, 5-(2'-Hydroxyethoxy)-7-ethylcamptothecin]
IC (TGI) (KD 488; 48 h): 2.28 µM | GI50 (KD 488): 0.246 µM

CC=c1c2cc3ccccc3nc2c2cc3c(c(=O)n12)COC(=O)[C@]3(O)CC [formula 11]
anti-tumor activity [1]: anti-tumor activity comparable to that of 20(S)-camptothecin
